How the values were obtained:
[1] = molecular target: Neuronal acetylcholine receptor subunit alpha-7 (Rattus norvegicus, UniProt Q05941); assay: Displacement of [125I]alpha-bungarotoxin from alpha7 nAChR in rat cortical membrane; format: cell membranes
[2] = molecular target: T1, Neuronal acetylcholine receptor; alpha4/beta2 (Rattus norvegicus, UniProt P09483+P12390); assay: Displacement of [3H]epibatidine from alpha4beta2 nAChR in rat cortical membrane; format: cell membranes
[3] = species on record: Rattus norvegicus; assay: Selectivity ratio of Ki for rat alpha4beta2 nAChR to Ki for rat alpha7 nAChR
[4] = molecular target: T1, Neuronal acetylcholine receptor; alpha4/beta2; assay: Displacement of [3H]nicotine from alpha4beta2 nAChR in rat cerebral membrane; format: cell membranes
[5] = molecular target: T2, Neuronal acetylcholine receptor; alpha4/beta2 (Homo sapiens, UniProt P17787+P43681); assay: Binding affinity to alpha4beta2 nAChR; format: protein-complex assay
T2 sequence (P17787 whole entry): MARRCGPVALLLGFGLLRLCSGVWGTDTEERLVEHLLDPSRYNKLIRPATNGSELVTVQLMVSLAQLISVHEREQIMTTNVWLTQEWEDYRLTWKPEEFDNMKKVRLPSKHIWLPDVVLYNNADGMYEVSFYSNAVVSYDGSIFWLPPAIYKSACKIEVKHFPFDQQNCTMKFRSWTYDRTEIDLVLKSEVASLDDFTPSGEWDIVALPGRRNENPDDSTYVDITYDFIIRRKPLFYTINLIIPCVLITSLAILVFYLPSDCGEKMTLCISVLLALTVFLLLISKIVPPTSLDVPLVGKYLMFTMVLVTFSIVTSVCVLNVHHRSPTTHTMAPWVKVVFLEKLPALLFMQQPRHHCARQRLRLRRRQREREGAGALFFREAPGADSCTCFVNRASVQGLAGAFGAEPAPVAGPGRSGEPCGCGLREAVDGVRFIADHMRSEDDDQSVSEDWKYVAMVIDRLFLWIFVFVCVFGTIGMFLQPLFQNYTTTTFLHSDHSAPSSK
T2 sequence (P43681 whole entry): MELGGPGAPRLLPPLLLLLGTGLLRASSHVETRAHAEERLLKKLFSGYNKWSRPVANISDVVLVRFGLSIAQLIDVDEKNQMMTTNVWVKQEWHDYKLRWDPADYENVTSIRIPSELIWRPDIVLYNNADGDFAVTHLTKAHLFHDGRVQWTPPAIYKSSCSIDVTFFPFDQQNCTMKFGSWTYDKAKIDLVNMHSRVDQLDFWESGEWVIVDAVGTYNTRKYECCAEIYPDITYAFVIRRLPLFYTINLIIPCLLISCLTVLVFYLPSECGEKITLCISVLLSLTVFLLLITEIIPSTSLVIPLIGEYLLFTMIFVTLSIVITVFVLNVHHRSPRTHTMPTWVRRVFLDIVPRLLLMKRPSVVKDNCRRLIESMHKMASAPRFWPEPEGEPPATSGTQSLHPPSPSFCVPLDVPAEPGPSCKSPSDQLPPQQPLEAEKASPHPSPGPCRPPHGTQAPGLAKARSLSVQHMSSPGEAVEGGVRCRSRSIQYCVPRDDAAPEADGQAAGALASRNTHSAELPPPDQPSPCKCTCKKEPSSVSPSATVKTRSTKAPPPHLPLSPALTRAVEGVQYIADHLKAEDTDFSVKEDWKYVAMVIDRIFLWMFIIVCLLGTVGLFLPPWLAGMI

[6] = molecular target: T2, Neuronal acetylcholine receptor; alpha4/beta2; assay: Displacement of [3H]cystisine from alpha4beta2 nAChR; format: protein-complex assay

T1 sequence (P09483 whole entry): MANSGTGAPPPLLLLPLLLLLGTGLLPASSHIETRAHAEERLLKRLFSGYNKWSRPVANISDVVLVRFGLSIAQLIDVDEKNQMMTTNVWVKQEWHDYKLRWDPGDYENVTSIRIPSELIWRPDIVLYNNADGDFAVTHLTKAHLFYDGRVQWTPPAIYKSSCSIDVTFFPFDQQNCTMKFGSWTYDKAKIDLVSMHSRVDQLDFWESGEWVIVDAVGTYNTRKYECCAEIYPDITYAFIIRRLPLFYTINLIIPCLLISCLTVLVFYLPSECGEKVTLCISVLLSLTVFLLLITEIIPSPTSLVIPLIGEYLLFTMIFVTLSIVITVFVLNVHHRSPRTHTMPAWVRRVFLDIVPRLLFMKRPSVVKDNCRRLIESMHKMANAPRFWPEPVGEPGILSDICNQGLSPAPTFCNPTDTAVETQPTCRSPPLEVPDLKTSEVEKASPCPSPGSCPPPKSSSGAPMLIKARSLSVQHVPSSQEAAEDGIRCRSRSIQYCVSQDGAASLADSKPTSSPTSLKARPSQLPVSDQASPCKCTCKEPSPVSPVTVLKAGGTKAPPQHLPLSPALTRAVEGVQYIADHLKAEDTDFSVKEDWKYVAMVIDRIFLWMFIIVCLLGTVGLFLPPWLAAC
T1 sequence (P12390 whole entry): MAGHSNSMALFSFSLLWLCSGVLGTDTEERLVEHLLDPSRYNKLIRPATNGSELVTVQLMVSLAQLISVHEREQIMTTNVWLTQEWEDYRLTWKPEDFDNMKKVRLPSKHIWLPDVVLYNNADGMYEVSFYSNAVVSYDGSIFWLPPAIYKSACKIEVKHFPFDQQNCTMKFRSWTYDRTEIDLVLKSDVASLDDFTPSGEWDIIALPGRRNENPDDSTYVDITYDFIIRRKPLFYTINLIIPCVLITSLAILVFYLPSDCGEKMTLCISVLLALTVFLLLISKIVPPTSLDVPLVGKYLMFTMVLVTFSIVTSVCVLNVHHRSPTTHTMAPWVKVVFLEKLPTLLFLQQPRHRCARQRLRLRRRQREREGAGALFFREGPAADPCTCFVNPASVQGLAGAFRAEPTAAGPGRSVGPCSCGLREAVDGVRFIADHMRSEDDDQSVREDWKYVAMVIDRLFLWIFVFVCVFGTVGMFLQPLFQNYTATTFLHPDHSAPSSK
Chain of Neuronal acetylcholine receptor subunit alpha-7 (Q05941 whole entry): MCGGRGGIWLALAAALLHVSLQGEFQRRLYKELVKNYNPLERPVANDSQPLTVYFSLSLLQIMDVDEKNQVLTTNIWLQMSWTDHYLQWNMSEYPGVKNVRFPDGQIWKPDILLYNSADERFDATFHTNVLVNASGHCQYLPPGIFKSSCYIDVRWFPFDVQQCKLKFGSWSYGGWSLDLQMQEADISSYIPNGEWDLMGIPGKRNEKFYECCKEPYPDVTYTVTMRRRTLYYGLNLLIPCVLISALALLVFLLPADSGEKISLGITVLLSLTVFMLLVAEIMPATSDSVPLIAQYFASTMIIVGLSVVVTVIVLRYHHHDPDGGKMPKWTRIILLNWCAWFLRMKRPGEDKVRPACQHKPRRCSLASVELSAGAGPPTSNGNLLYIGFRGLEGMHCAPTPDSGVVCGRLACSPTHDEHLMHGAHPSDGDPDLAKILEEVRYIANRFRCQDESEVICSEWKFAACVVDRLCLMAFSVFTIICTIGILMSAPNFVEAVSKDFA

## Cc1cc(C2=CC3CCC2N3)on1 (racemic)
[1]
  Ki: 1.6 µM
[2]
  Ki: 0.05 µM
[3]
  Ratio Ki: 32

## Cc1cc(C2=CC3CCC2N3C)on1 (racemic)
[1]
  Ki: 0.394 µM
[2]
  Ki: 0.514 µM

## Cc1cc([C@@H]2C[C@H]3CC[C@H]2N3)on1 (racemic) [ENDO-EPIBOXIDINE]
[1]
  Ki: 0.23 µM
[2]
  Ki: 0.07 µM

## Cc1cc([C@H]2C[C@H]3CC[C@H]2N3)on1 (racemic) [EXO-EPIBOXIDINE]
[4]
  Ki: 0.0006 µM
[5]
  Ki: 0.00046 µM
[6]
  Ki: 0.00133 µM
[1]
  Ki: 0.006 µM
[2]
  Ki: 0.0004 µM
[3]
  Ratio Ki: 15

— ChEMBL document CHEMBL1155922, “Epiboxidine and novel-related analogues: a convenient synthetic approach and estimation of their affinity at neuronal nicotinic acetylcholine receptor subtypes” (Bioorg Med Chem Lett, 2008)
